# Test results from PubChem BioAssay (NCI).
#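 The concentration for 50% growth inhibition is given as GI50. At the TGI there is no net growth.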
# How the values were obtained:
# Assay in all cases: growth of human tumour cells (NCI), 384-well format
# HCC-2998 colon = test system: HCC-2998 colon
# HCT-116 colon = test system: HCT-116 colon
# U251 glioblastoma = test system: U251 glioblastoma
# A549 NSCLC = test system: A549 NSCLC
# TK-10 renal = test system: TK-10 renal
# RXF 393 renal = test system: RXF 393 renal
# SK-MEL-5 melanoma = test system: SK-MEL-5 melanoma
# HCT-15 colon = test system: HCT-15 colon
# SNB-75 CNS = test system: SNB-75 CNS
# IGROV1 ovarian = test system: IGROV1 ovarian
# MALME-3M melanoma = test system: MALME-3M melanoma
# SF-268 CNS = test system: SF-268 CNS
# T-47D breast = test system: T-47D breast
# UACC-257 melanoma = test system: UACC-257 melanoma
# UACC-62 melanoma = test system: UACC-62 melanoma
# SW-620 colon = test system: SW-620 colon
# UO-31 renal = test system: UO-31 renal
# DU-145 prostate = test system: DU-145 prostate
# PC-3 prostate = test system: PC-3 prostate
# NCI-H226 lung = test system: NCI-H226 lung
# HT29 colon = test system: HT29 colon
# SNB-19 CNS = test system: SNB-19 CNS
# A498 renal = test system: A498 renal
# HL-60(TB) leukemia = test system: HL-60(TB) leukemia
# OVCAR-4 ovarian = test system: OVCAR-4 ovarian
# MDA-MB-468 breast = test system: MDA-MB-468 breast
# ACHN renal = test system: ACHN renal
# EKVX NSCLC = test system: EKVX NSCLC
# SK-MEL-28 melanoma = test system: SK-MEL-28 melanoma
# RPMI-8226 leukemia = test system: RPMI-8226 leukemia
# MCF7 breast = test system: MCF7 breast
# LOX IMVI melanoma = test system: LOX IMVI melanoma
# KM12 colon = test system: KM12 colon
# 786-0 renal = test system: 786-0 renal
# HOP-92 NSCLC = test system: HOP-92 NSCLC
# CAKI-1 renal = test system: CAKI-1 renal
# HOP-62 NSCLC = test system: HOP-62 NSCLC
# BT-549 breast = test system: BT-549 breast
# M14 melanoma = test system: M14 melanoma
# CCRF-CEM leukemia = test system: CCRF-CEM leukemia
# SF-539 CNS = test system: SF-539 CNS
# NCI-H522 lung = test system: NCI-H522 lung
# NCI-H322M lung = test system: NCI-H322M lung
# SR leukemia = test system: SR leukemia
# NCI-H23 lung = test system: NCI-H23 lung
# NCI-H460 NSCLC = test system: NCI-H460 NSCLC
# SF-295 CNS = test system: SF-295 CNS
# SK-OV-3 ovarian = test system: SK-OV-3 ovarian
# SN12C renal = test system: SN12C renal
# MOLT-4 leukemia = test system: MOLT-4 leukemia
# MDA-MB-231 breast = test system: MDA-MB-231 breast
# NCI/ADR-RES ovarian = test system: NCI/ADR-RES ovarian
# HS 578T breast = test system: HS 578T breast
# COLO 205 colon = test system: COLO 205 colon
# OVCAR-3 ovarian = test system: OVCAR-3 ovarian
# OVCAR-8 ovarian = test system: OVCAR-8 ovarian
# OVCAR-5 ovarian = test system: OVCAR-5 ovarian
smiles,measurement,setting,value
CC(=O)c1nc(-c2ccc(C[C@@H](CNC(=O)CN(C)C)NC(=O)c3ccc(OC(C)C)c(Cl)c3)cc2)cn1C,GI50,HCC-2998 colon,0.0181 µM
same,TGI,HCC-2998 colon,6.86 µM
same,GI50,HCT-116 colon,0.0341 µM
same,TGI,HCT-116 colon,15.1 µM
same,GI50,U251 glioblastoma,0.0162 µM
same,TGI,U251 glioblastoma,16.9 µM
same,GI50,A549 NSCLC,0.0367 µM
same,TGI,A549 NSCLC,16.5 µM
same,GI50,TK-10 renal,10.2 µM
same,TGI,TK-10 renal,21.9 µM
same,GI50,RXF 393 renal,0.0192 µM
same,TGI,RXF 393 renal,10.9 µM
same,GI50,SK-MEL-5 melanoma,0.0254 µM
same,TGI,SK-MEL-5 melanoma,1.18 µM
same,GI50,HCT-15 colon,0.0471 µM
same,TGI,HCT-15 colon,16.1 µM
same,GI50,SNB-75 CNS,0.0558 µM
same,TGI,SNB-75 CNS,15.8 µM
same,GI50,IGROV1 ovarian,0.0541 µM
same,TGI,IGROV1 ovarian,20.4 µM
same,GI50,MALME-3M melanoma,0.0613 µM
same,TGI,MALME-3M melanoma,1.7 µM
same,GI50,SF-268 CNS,0.0123 µM
same,TGI,SF-268 CNS,0.0439 µM
same,GI50,T-47D breast,0.0227 µM
same,TGI,T-47D breast,13.1 µM
same,GI50,UACC-257 melanoma,0.0683 µM
same,TGI,UACC-257 melanoma,1.76 µM
same,GI50,UACC-62 melanoma,0.0161 µM
same,TGI,UACC-62 melanoma,17.9 µM
same,GI50,SW-620 colon,0.0473 µM
same,TGI,SW-620 colon,20.6 µM
same,GI50,UO-31 renal,0.823 µM
same,TGI,UO-31 renal,20.9 µM
same,GI50,DU-145 prostate,0.0169 µM
same,TGI,DU-145 prostate,15.9 µM
same,GI50,PC-3 prostate,0.0314 µM
same,TGI,PC-3 prostate,19.1 µM
same,GI50,NCI-H226 lung,12.2 µM
same,TGI,NCI-H226 lung,24.6 µM
same,GI50,HT29 colon,0.013 µM
same,TGI,HT29 colon,0.06 µM
same,GI50,SNB-19 CNS,0.0145 µM
same,TGI,SNB-19 CNS,21.5 µM
same,GI50,A498 renal,0.039 µM
same,TGI,A498 renal,19.4 µM
same,GI50,HL-60(TB) leukemia,0.0149 µM
same,TGI,HL-60(TB) leukemia,0.029 µM
same,GI50,OVCAR-4 ovarian,12.5 µM
same,TGI,OVCAR-4 ovarian,25.1 µM
same,TGI,MDA-MB-468 breast,0.0295 µM
same,GI50,ACHN renal,11 µM
same,TGI,ACHN renal,23.2 µM
same,GI50,EKVX NSCLC,0.0241 µM
same,TGI,EKVX NSCLC,17.3 µM
same,GI50,SK-MEL-28 melanoma,1.13 µM
same,TGI,SK-MEL-28 melanoma,7.5 µM
same,GI50,RPMI-8226 leukemia,0.0213 µM
same,TGI,RPMI-8226 leukemia,0.0429 µM
same,GI50,MCF7 breast,0.0601 µM
same,TGI,MCF7 breast,18.2 µM
same,GI50,LOX IMVI melanoma,0.0628 µM
same,TGI,LOX IMVI melanoma,18 µM
same,GI50,KM12 colon,0.0139 µM
same,TGI,KM12 colon,19.8 µM
same,GI50,786-0 renal,0.0184 µM
same,TGI,786-0 renal,14 µM
same,GI50,HOP-92 NSCLC,1.82 µM
same,TGI,HOP-92 NSCLC,18.2 µM
same,GI50,CAKI-1 renal,0.0454 µM
same,TGI,CAKI-1 renal,16.5 µM
same,GI50,HOP-62 NSCLC,0.0414 µM
same,TGI,HOP-62 NSCLC,20.7 µM
same,GI50,BT-549 breast,0.0258 µM
same,TGI,BT-549 breast,13.6 µM
same,GI50,M14 melanoma,0.0174 µM
same,TGI,M14 melanoma,0.0515 µM
COC(=O)N[C@@H](C)CNc1nccc(-c2cn(C(C)C)nc2-c2cc(Cl)cc(NS(C)(=O)=O)c2F)n1,GI50,CCRF-CEM leukemia,42.2 µM
same,TGI,CCRF-CEM leukemia,> 100 µM
same,GI50,HCC-2998 colon,11.9 µM
same,TGI,HCC-2998 colon,39.7 µM
same,GI50,HCT-116 colon,1.92 µM
same,TGI,HCT-116 colon,> 71.9 µM
same,GI50,SF-539 CNS,43.3 µM
same,TGI,SF-539 CNS,> 100 µM
same,GI50,NCI-H522 lung,3.91 µM
same,TGI,NCI-H522 lung,97.9 µM
same,GI50,U251 glioblastoma,17.2 µM
same,TGI,U251 glioblastoma,65.9 µM
same,GI50,A549 NSCLC,16.3 µM
same,TGI,A549 NSCLC,> 92.6 µM
same,GI50,TK-10 renal,20.7 µM
same,TGI,TK-10 renal,> 100 µM
same,GI50,RXF 393 renal,6.32 µM
same,TGI,RXF 393 renal,34.9 µM
same,GI50,NCI-H322M lung,6.15 µM
same,TGI,NCI-H322M lung,> 95.8 µM
same,GI50,HCT-15 colon,9.03 µM
same,TGI,HCT-15 colon,> 100 µM
same,GI50,SNB-75 CNS,14.8 µM
same,TGI,SNB-75 CNS,> 100 µM
same,GI50,IGROV1 ovarian,0.929 µM
same,TGI,IGROV1 ovarian,> 100 µM
same,GI50,MALME-3M melanoma,< 0.01 µM
same,TGI,MALME-3M melanoma,< 0.01 µM
same,GI50,SF-268 CNS,> 84.8 µM
same,TGI,SF-268 CNS,> 100 µM
same,GI50,T-47D breast,> 20 µM
same,TGI,T-47D breast,> 100 µM
same,GI50,UACC-62 melanoma,< 0.01 µM
same,TGI,UACC-62 melanoma,< 0.01 µM
same,GI50,SW-620 colon,6.22 µM
same,TGI,SW-620 colon,> 76.8 µM
same,GI50,SR leukemia,6.45 µM
same,TGI,SR leukemia,20.6 µM
same,GI50,NCI-H23 lung,4.15 µM
same,TGI,NCI-H23 lung,> 100 µM
same,GI50,NCI-H460 NSCLC,32.5 µM
same,TGI,NCI-H460 NSCLC,> 100 µM
same,GI50,UO-31 renal,6.96 µM
same,TGI,UO-31 renal,> 100 µM
same,GI50,DU-145 prostate,6.7 µM
same,TGI,DU-145 prostate,> 100 µM
same,GI50,SF-295 CNS,97.6 µM
same,TGI,SF-295 CNS,> 100 µM
same,GI50,PC-3 prostate,70.9 µM
same,TGI,PC-3 prostate,> 100 µM
same,GI50,NCI-H226 lung,37 µM
same,TGI,NCI-H226 lung,> 100 µM
same,GI50,HT29 colon,< 0.01 µM
same,TGI,HT29 colon,23.6 µM
same,GI50,SNB-19 CNS,> 100 µM
same,TGI,SNB-19 CNS,> 100 µM
same,GI50,A498 renal,1.13 µM
same,TGI,A498 renal,> 100 µM
same,GI50,HL-60(TB) leukemia,2.06 µM
same,TGI,HL-60(TB) leukemia,6.91 µM
same,GI50,SK-OV-3 ovarian,0.806 µM
same,TGI,SK-OV-3 ovarian,> 100 µM
same,GI50,OVCAR-4 ovarian,> 100 µM
same,TGI,OVCAR-4 ovarian,> 100 µM
same,GI50,MDA-MB-468 breast,11.5 µM
same,TGI,MDA-MB-468 breast,> 100 µM
same,GI50,ACHN renal,3.54 µM
same,TGI,ACHN renal,> 100 µM
same,GI50,EKVX NSCLC,13.8 µM
same,TGI,EKVX NSCLC,> 100 µM
same,GI50,SN12C renal,14.9 µM
same,TGI,SN12C renal,> 100 µM
same,GI50,MOLT-4 leukemia,29.6 µM
same,TGI,MOLT-4 leukemia,> 100 µM
same,GI50,SK-MEL-28 melanoma,< 0.01 µM
same,TGI,SK-MEL-28 melanoma,< 0.01 µM
same,GI50,RPMI-8226 leukemia,> 100 µM
same,TGI,RPMI-8226 leukemia,> 100 µM
same,GI50,MCF7 breast,> 100 µM
same,TGI,MCF7 breast,> 100 µM
same,GI50,LOX IMVI melanoma,0.498 µM
same,TGI,LOX IMVI melanoma,> 61.2 µM
same,GI50,KM12 colon,36.5 µM
same,TGI,KM12 colon,> 100 µM
same,GI50,MDA-MB-231 breast,3.17 µM
same,TGI,MDA-MB-231 breast,40.2 µM
same,GI50,NCI/ADR-RES ovarian,> 100 µM
same,TGI,NCI/ADR-RES ovarian,> 100 µM
same,GI50,HS 578T breast,14.7 µM
same,TGI,HS 578T breast,40.8 µM
same,GI50,786-0 renal,7.06 µM
same,TGI,786-0 renal,> 73.3 µM
same,GI50,HOP-92 NSCLC,7.13 µM
same,TGI,HOP-92 NSCLC,> 100 µM
same,GI50,CAKI-1 renal,0.728 µM
same,TGI,CAKI-1 renal,> 47.9 µM
same,GI50,HOP-62 NSCLC,61.9 µM
same,TGI,HOP-62 NSCLC,> 100 µM
same,GI50,COLO 205 colon,< 0.01 µM
same,GI50,OVCAR-3 ovarian,48.8 µM
same,TGI,OVCAR-3 ovarian,> 100 µM
same,GI50,BT-549 breast,38.1 µM
same,TGI,BT-549 breast,> 100 µM
same,GI50,M14 melanoma,< 0.01 µM
same,TGI,M14 melanoma,< 0.0175 µM
same,GI50,OVCAR-8 ovarian,38.2 µM
same,TGI,OVCAR-8 ovarian,> 100 µM
same,GI50,OVCAR-5 ovarian,33.2 µM
same,TGI,OVCAR-5 ovarian,> 100 µM
